From patent US6589977B1, “Pyrrole derivatives and cell death inhibitors” (Sagami Chemical Research Center, priority 1999, dated 2003)

Assays:
[1] = system: Porcine ovarian granulosa cells (POGC); experiment: Inhibition of SNP-induced apoptosis of porcine ovarian granulosa cells; format: cell-based; settings: SNP 0.5 mM; cells observed after 18 hours
Text: (§1) Porcine ovaries were washed with PBS buffer, and Porcine ovarian granulosa cells (POGC) were collected by aspiration from follicles with a syringe. Cell fraction was recovered as a precipitate by centrifugation of the suspension. The operation of suspending the cell fraction into PBS buffer and subjecting the resulting suspension to centrifugation was repeated three times to wash the cells. The POGC obtained as a precipitate were suspended again into a culture medium (DMEM containing 10% fetal bovine serum) and cell clumps were disrupted by pipetting. The cell suspension was passed through a mesh to remove contaminating tissue fragments, and then pipetted in 24-well plates for cell culture. The cell suspension was cultured for 2 days in a CO2 incubator according to a conventional procedure (37° C., 5% CO2). Then, the medium was refreshed to remove floating cells and the cultivation was continued further 2 to 3 days until the cells reached subconfluency (0.7 to 2×10^5 cell/well). After the attaching cells were washed with serum-free medium, they were cultured in a serum-free DMEM (containing 5 μg/mL of transferrin, and 40 ng/mL of hydrocortisone, 4 mg/mL of bovine serum albumin (BSA), 100 nM androstendione) and it was possible to continue to culture cells with relatively immature differentiation. […] The cell death was also confirmed by MTT assay. Then, various concentrations of the test compounds were added to the present culture system and the cells were observed after 18 hours.

[2] = system: cerebellar granule cells; experiment: Inhibition of hydrogen peroxide-induced death of cerebellar granule cells; format: cell-based, rats; settings: compound 10 μM added prior to hydrogen peroxide (10 μM); after 12 hours
Method: (§2) According to a known method (A Dissection and Tissue Culture Manual of the Nervous System, p. 211, 1989, Alan R, Liss, Inc.), cerebellar granule cells were isolated from the cerebellum of 7 days old rats and cultured. Namely, after conducting isolation procedures described in the above literature, the resulting cells were resuspended in DMEM containing 10% fetal bovine serum, 25 mM KCl and 2 mM glutamine, and seeded in poly-lysine coated plates. After the cells were cultured in a CO2 incubator for 48 hours according to a conventional method, cytosine-1-β-D(+)-arabinofuranoside (Ara-C) (10 μM) was added thereto, and the cell was continued to culture. The following experiments were conducted with the cells of 7 to 14 days old from the start day of the cultivation, the cells having completed neurite extension sufficiently.

[3] = system: cerebellar granule cells; experiment: Inhibition of low potassium medium-induced death of cerebellar granule cells; format: cell-based, rats; settings: compound 10 μM; low potassium medium (5 mM KCl); after 18 hours
Method: as §2
It is known that neuronal cells undergo cell death when they are cultured in a medium of low potassium (Proc. Natl. Acad. Sci. U.S.A., volume 90, p 10989, 1993). […] When the test compound 1 (10 μM), the test compound 10 (10 μM), or the test compound 15 (10 μM)coexisted, 50%, 80%, and 85% of cells were respectively alive on an observation made similarly after 18 hours.

[4] = system: Hela 3S cells; experiment: Anti-cell death effect on Hela 3S cells cultured in Krebs Ringer Buffer; format: cell-based, human; settings: compound 10 μM
Method: Hela 3S cells (culture medium: DMEM containing 10% fetal bovine serum), a cell line derived from human cervical cancer, were seeded into multi 48 well plates and cultured in a CO2 incubator according to conventional procedures. Confirming the subconfluency of a cell culture, the medium was replaced with Krebs Ringer Buffer (120 mM NaCl, […], 1 mM KH2PO4, […], 20 mM HEPES, pH 7.4, 2.57 g/L glucose, 0.05 g/L Phenol Red) and washed three times with the same buffer and cultivation continued in the same buffer. […] When the test compound 1 (10 μM) or the test compound 15 (10 μM) was added in the present culture system and cultivation continued similarly, the proportion of normal cells increased 59% or 77% respectively, and the proportion of necrosis-like cells decreased (1% or 0%, respectively), indicating the anti-cell death effects.

[5] = system: erythrocytes; experiment: Inhibition of hydrogen peroxide-induced hemolysis of erythrocytes; format: cell-based, Human; settings: compound 10 μM added prior to hydrogen peroxide (300 μM); after 24 hours
Method: Human blood was collected and precipitated by a centrifugation (1000 rpm, 5 min) and the precipitate containing erythrocytes was washed three times with PBS and resuspended (about 5×10^8 cells/ml) with DMEM containing 10% fetal bovine serum. Cell suspensions were dispensed into a 48-well plate to become subconfluent (about 5×10^5 cells/0.5 ml/well). When hydrogen peroxide (300 μM) was added and cultivation continued for 24 hours, more than 95% of erythrocytes underwent hemolysis and become dark and ghost-like on an observation under a light microscopy.

[6] = system: undifferentiated POGC; experiment: Inhibition of hydrogen peroxide-induced cell death of undifferentiated POGC; format: cell-based, Porcine; settings: compound 0.3 μM added prior to hydrogen peroxide (100 μM); observation after 18 hour
Text: as §1, with “Then, various concentrations of the test compounds were added to the present culture system and the cells were observed after 18 hours.” left out

With `Cc1ccc2[nH]cc(-c3cn(C)cc3-c3cn(C(=O)OC(C)(C)C)c4ccc(C)cc34)c2c1` [Compound 22] the “MEC (Minimum effective concentration for more than 95% of inhibition of cell death)” value [1] was 0.3 µM.

In the case of `Cc1ccc2[nH]cc(-c3cn(C)cc3-c3cn(C)c4ccc(C)cc34)c2c1` [Compound 24, 3-(1,5-dimethyl-1H-indol-3-yl)-4-(5-methyl-1H-indol-3-yl)-1-methylpyrrole], the “MEC (Minimum effective concentration for more than 95% of inhibition of cell death)” value [1] is reported as 0.1 µM.

With `COc1ccc2[nH]cc(-c3cn(C)cc3-c3c[nH]c4ccc(OC)cc34)c2c1` [Compound 13] the “MEC (Minimum effective concentration for more than 95% of inhibition of cell death)” value [1] was 0.3 µM.

For `Cn1cc(-c2cn(CCCN)c3ccccc23)c(-c2cn(CCCN)c3ccccc23)c1` [Compound 5], the “MEC (Minimum effective concentration for more than 95% of inhibition of cell death)” value [1] was 0.1 µM.

`Cn1cc(-c2c[nH]c3ccccc23)c(-c2c[nH]c3ccccc23)c1` [Compound 1] was tested, and the “MEC (Minimum effective concentration for more than 95% of inhibition of cell death)” value [1] was 0.3 µM, the cells alive [2] was “more than 80%” and the cells alive [3] was 50%. For the same compound, the “proportion of necrosis-like cells” value ([4]; after 5 hours (11% without compound)) was 1%, the “proportion of normal cells” value ([4]; after 5 hours (42% normal without compound)) was 59% and the inhibition of hemolysis [5] was “almost complete inhibition of hemolysis”.

For `CN(C)CCCn1cc(-c2cn(C)cc2-c2cn(CCCN(C)C)c3ccccc23)c2ccccc21` [Compound 7], the “MEC (Minimum effective concentration for more than 95% of inhibition of cell death)” value [1] was 1 µM.

`Cc1[nH]c2ccccc2c1-c1cn(C)cc1-c1c(C)[nH]c2ccccc12` [Compound 11] was tested, and the “MEC (Minimum effective concentration for more than 95% of inhibition of cell death)” value [1] was 0.1 µM.

`COc1ccc2c(c1)c(-c1cn(C)cc1-c1cn(C)c3ccc(OC)cc13)cn2C` [Compound 14] was tested, and the “MEC (Minimum effective concentration for more than 95% of inhibition of cell death)” value [1] was 1 µM.

With `Cn1cc(-c2cn(C(=O)OC(C)(C)C)c3ccccc23)c(-c2cn(C(=O)OC(C)(C)C)c3ccccc23)c1` [Compound 3] the “MEC (Minimum effective concentration for more than 95% of inhibition of cell death)” value [1] was 10 µM.

For `Cn1cc(-c2cn(C)c3ccccc23)c(-c2cn(C)c3ccccc23)c1` [Compound 9], the “MEC (Minimum effective concentration for more than 95% of inhibition of cell death)” value [1] was 0.3 µM.

With `Cc1ccc2c(c1)c(-c1cn(C)cc1-c1cn(CCCN)c3ccc(C)cc13)cn2C` [Compound 16] the “MEC (Minimum effective concentration for more than 95% of inhibition of cell death)” value [1] was 0.1 µM, the “inhibition of cell death” value [6] was “complete inhibition of cell death” and the “survival of the cells” value [6] was “more than 95%”.

For `Cn1cc(-c2c[nH]c3ccccc23)c(-c2cn(C(=O)OC(C)(C)C)c3ccccc23)c1` [Compound 2], the “MEC (Minimum effective concentration for more than 95% of inhibition of cell death)” value [1] was 0.3 µM.

In the case of `Cc1ccc2c(c1)c(-c1cn(C)cc1-c1cn(C(=O)OC(C)(C)C)c3ccc(C)cc13)cn2C(=O)OC(C)(C)C` [Compound 23], the “MEC (Minimum effective concentration for more than 95% of inhibition of cell death)” value [1] is reported as 10 µM.

For `Cn1cc(-c2c[nH]c3ccccc23)c(-c2cn(C)c3ccccc23)c1` [Compound 8], the “MEC (Minimum effective concentration for more than 95% of inhibition of cell death)” value [1] was 0.3 µM.

For `c1ccc(-n2cc(-c3c[nH]c4ccccc34)c(-c3c[nH]c4ccccc34)c2)cc1` [Compound 17], the “MEC (Minimum effective concentration for more than 95% of inhibition of cell death)” value [1] was 0.3 µM.

With `Cn1cc(-c2c[nH]c3ccc(F)cc23)c(-c2c[nH]c3ccc(F)cc23)c1` [Compound 12] the “MEC (Minimum effective concentration for more than 95% of inhibition of cell death)” value [1] was 1 µM.

`CN(C)CCCn1cc(-c2cn(C)cc2-c2c[nH]c3ccccc23)c2ccccc21` [Compound 6] was tested, and the “MEC (Minimum effective concentration for more than 95% of inhibition of cell death)” value [1] was 0.3 µM.

With `c1ccc(Cn2cc(-c3c[nH]c4ccccc34)c(-c3c[nH]c4ccccc34)c2)cc1` [Compound 18] the “MEC (Minimum effective concentration for more than 95% of inhibition of cell death)” value [1] was 0.3 µM.

In the case of `Cc1cccc2c(-c3cn(C)cc3-c3c[nH]c4c(C)cccc34)c[nH]c12` [Compound 10], the “MEC (Minimum effective concentration for more than 95% of inhibition of cell death)” value [1] is reported as 0.03 µM, the cells alive [2] is reported as greater than 95% and the cells alive [3] is reported as 80%. The inhibition of hemolysis [5] was “almost complete inhibition of hemolysis”.

In the case of `Cn1cc(-c2c[nH]c3ccccc23)c(-c2cn(CCCN)c3ccccc23)c1` [Compound 4], the “MEC (Minimum effective concentration for more than 95% of inhibition of cell death)” value [1] is reported as 0.3 µM.
